# Experiments:
# Type in all cases: cell-based
# HCC1428-LTED cells [1] = assay: FACS analysis of CD44 expression on the cell surface after ELEANOR knock-down
# Description: The maximum value in the analysis is defined as 100.
# Whether the CD44 expression is changed also at the protein level was investigated. Comparative analysis of CD44 expression between HCC1428 and HCC1428-LTED cells was performed. The LNA of SEQ ID NO: 1 that suppresses ELEANOR expression and siRNA (Thermo Fisher Scientific) that suppresses CD44 expression were introduced into HCC1428-LTED cells, and the CD44 expression was analyzed by Western blotting (FIG. 5E). […] Furthermore, an ELEANOR was knocked down by introducing the LNA of SEQ ID NO: 1 into HCC1428-LTED cells, and whether the CD44 expression on the cell surface is also changed or not was analyzed by FACS.
# CD44 mRNA = assay: RT-qPCR of CD44 mRNA after suppression of ELEANOR expression by LNAs; conditions: HCC1428-LTED cells, ELEANOR knock-down by LNA
# Description: FIG. 5D is a graph showing the results of RT-qPCR analysis of expressions of ESR1 and CD44 when ELEANORS are knocked down by ELEANOR2 LNA and pa-ELEANOR LNA.
# Expressions of ESR1, ELEANORS, and CD44 in the HC1428 and HC1428-LTED cells were analyzed by RT-qPCR using the primers below. In the RT-qPCR, total RNA was purified from cultured cells using NucleoSpin RNA/protein kit (MACHEREY-NAGEL) and was reverse-transcribed by ReverTra Ace qPCR RT Master Mix (TOYOBO Co., Ltd.). The RT-qPCR was performed by ABI Prism 7500 (ABI inc.) using SYBR Green.
# Subsequently, the ELEANOR expression was suppressed by LNAs of SEQ ID NO: 1 and SEQ ID NO: 41 specific to ELEANORS, and whether the CD44 expression is changed or not was investigated. The expression of CD44 mRNA was decreased by knock-down of these ELEANORS (FIG. 5D).
# HCC1428-LTED cells [2] = assay: FACS analysis of CD44/CD24 expression (breast cancer stem cells) after LNA knock-down of ELEANOR2; conditions: LNA transfected with RNAiMAX, analysis after 48 hours
# Description: ELEANOR2 RNA which is most abundant in ELEANORS was knocked down by LNA, and CD44/CD24 expression was analyzed by FACS (FIG. 5B). The LNA below was transfected using RNAiMAX (Invitrogen), and analysis was performed after 48 hours.
Substance,number of CD44+ cells (HCC1428-LTED cells [1]),expression of CD44 mRNA (CD44 mRNA),number of breast cancer stem cells (CD44+/CD24-/low) (HCC1428-LTED cells [2])
"ELEANOR2-LNA: LNA that knocks down ELEANOR2 RNA, sequence TTTGGCCACATTGGAA (SEQ ID NO: 1) (LNA-modified antisense, pattern not given here)",decreased,decreased,significantly decreased
"pa-ELEANOR-LNA: LNA specific to pa-ELEANOR, sequence GTGCCAGACTCCGATA (SEQ ID NO: 41) (LNA-modified antisense, pattern not given here)",–,decreased,–
